This is an account of results in patent US11753447B2, “Cyclic peptides, methods of synthesis, and methods of treatment” (priority 2020, dated 2023).

Numbered stars: 1 amine (or outer) side, 2 acyl side, 3 side chain; on linkers, the order of the positions; unused ones are H or OH. Square brackets hold non-standard residues; d marks the D form. Peptide text beside a SMILES is read from it. X1 = O=C(Cc1ccc(CCN[*:1])cc1)[*:2]

The test system of series [1] is SARS-CoV-2. The conditions noted are these: cell-based studies; cited from earlier work.
Series [2] deals with T1, SARS-CoV-2 M^pro (Severe acute respiratory syndrome coronavirus 2, UniProt P0DTD1).
T1 construct: purchased Life Sensors
Put plainly: biochemical. The conditions noted are these: 0.1 μM M^pro, 50 μM fluorogenic substrate, 30 min pre-incubation, 37° C., non-linear regression of initial rates; read-out: IC50 against M^pro.

The subject of series [3] is HEK-293 cells. The settings on record: 72 hours.
Series [4] concerns the target T1, SARS-CoV-2 M^pro. Put plainly: LC/MS analysis of enzyme inhibition assay well solution for cleavage of UCI-1 by M^pro. In kind it is biochemical. The settings on record: 187.5 μM UCI-1 well solution after 4 hours, compared with peptide-1c spike.

For `CC(C)(C)OC(=O)Nc1cccn([C@@H](CC2CC2)C(=O)N[C@@H](C[C@@H]2CCNC2=O)C(=O)C(=O)NCc2ccccc2)c1=O` [13b], in series [1], the SARS-CoV-2 replication result is “block SARS-CoV-2 replication”.

On to `O=C[C@H](C[C@@H]1CCNC1=O)NC(=O)[C@H](CC1CCCCC1)NC(=O)c1cc2ccccc2[nH]1` [11a], for which, in series [1], the SARS-CoV-2 replication entry is “block SARS-CoV-2 replication”. In the case of `O=C[C@H](C[C@@H]1CCNC1=O)NC(=O)[C@H](Cc1cccc(F)c1)NC(=O)c1cc2ccccc2[nH]1` [11b], in series [1], the SARS-CoV-2 replication result is given as “block SARS-CoV-2 replication”. With `NCCCC[C@@H]1NC(=O)[C@H](CO)NC(=O)[C@H](CCC(N)=O)NC(=O)[C@H](Cc2ccccc2)NC(=O)Cc2ccc(cc2)CCNC1=O` [UCI-1] (cyclo(FQSK[X1])), in series [2], the IC50 was ~160 µM. Moreover, the cytotoxicity entry in series [3] (concentrations up to 256 μM, HEK-293) is on record as “not cytotoxic”. The “LDH release from HEK-293 cells” value in series [3] (highest concentration evaluated (256 μM)) is listed as “little or no LDH release”. For the same compound, the “cleavage by M^pro” value in series [4] is listed as “not appreciably cleaved”. For the compound `Cc1cc(C(=O)NC(C)C(=O)NC(C(=O)NC(CC(C)C)C(=O)NC(C=CC(=O)OCc2ccccc2)CC2CCNC2=O)C(C)C)no1` (centres unmarked) [N3], the SARS-CoV-2 replication result in series [1] is reported as “block SARS-CoV-2 replication”.
